This is an account of results in patent US11753410B2, “Hormone receptor modulators for treating metabolic mutagenic and fibrotic conditions and disorders” (priority 2017, dated 2023).

For experiment [1], the target named is T1, human Farnesoid X receptor ligand-binding domain/Gal4 DNA binding domain chimera (Homo sapiens, UniProt Q96RI1).
T1 construct: host or cells: FXR-UAS-bla HEK 293T (CellSensor UAS-bla HEK 293T)
T1 sequence (Q96RI1 262-486 limits assumed): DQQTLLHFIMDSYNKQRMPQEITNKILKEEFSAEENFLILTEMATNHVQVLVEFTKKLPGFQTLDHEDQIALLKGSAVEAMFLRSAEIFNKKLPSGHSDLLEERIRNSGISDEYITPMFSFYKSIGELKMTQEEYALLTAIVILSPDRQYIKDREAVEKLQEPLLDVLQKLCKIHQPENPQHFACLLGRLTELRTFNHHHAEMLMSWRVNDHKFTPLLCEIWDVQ
Briefly: Cell-based assay of FXR activation (FXR-UAS-bla HEK 293T beta-lactamase reporter). The conditions noted are these: for Emax: HEK-293T, read-out: Cellular % Efficacy. How it is done:
FXR activation was measured using a cell line and procedure obtained from Life Technologies (Cat #K1691). […] Activation of FXR by bound ligands results in transcriptional activation of the beta-lactamase reporter gene, which is detected via assay of beta-lactamase activity.
Cells are harvested and diluted into assay medium containing phenol red-free DMEM supplemented with 2% Charcoal-stripped FBS, pyruvate, non-essential amino acids. Cells are then transferred to a 384 well assay plate. Test compounds are dissolved in DMSO and a 3-fold serial dilution series is generated, then further diluted into assay medium. Compounds in assay medium are added to cells in the 384 well plate and allowed to incubate 16 h at 37 C in the presence of 5% CO2.
A FRET-based […] (CCF4) is loaded into cells as its acetomethoxy ester. Intracellular esterases liberate free CCF4, a cephalosporin core linking 7-hydroxycoumarin to fluorescein. In the presence of beta-lactamase activity produced in the presence of FXR agonists, cleavage of CCF4 spatially separates the two dyes and disrupts FRET, so that exciting the coumarin at 409 nm now produces a blue fluorescence signal at 447 nm. The change in FRET signal is plotted against the test compound concentration and fit to a 3-parameter logistical equation.

Experiment [2] concerns the target T2, ligand binding domain of human FXR (Homo sapiens, UniProt Q96RI1).
T2 construct: purchased Thermofisher (LanthaScreen) PV4833
T2 sequence (Q96RI1 262-486 limits assumed): T1 sequence (Q96RI1 262-486 limits assumed)
Nature of the experiment: biochemical. To be noted: for Emax: extent of activation relative to GW4064, read-out: Ligand Binding % Efficacy; for EC50: −log EC50, concentration required to produce 50% activation, FRET 520 nm/495 nm, 1 hour at room temperature, read-out: Ligand Binding pEC50 (converted).

As to `O=C(O)c1cc(OC2CC2)c2nc(N3C[C@@H]4C[C@H]3C[C@H]4OCc3c(-c4c(Cl)cccc4Cl)cnn3C3CC3)sc2c1` [Compound I-48, 4-cyclopropoxy-2-[(1S,4S,5R)-5-{[1-cyclopropyl-4-(2,6-dichlorophenyl)-1H-pyrazol-5-yl]methoxy}-2-azabicyclo[2.2.1]heptan-2-yl]-1,3-benzothiazole-6-carboxylic acid], in experiment [1], the EC50 is 20 nM and the Emax came to 101%. Also, in experiment [2], the Emax was found to be 88% and the EC50 was 39.8 nM.

Take `O=C(O)c1cc(C2CCOCC2)c2nc(N3C[C@@H]4C[C@H]3C[C@H]4OCc3c(-c4c(Cl)cccc4Cl)cnn3C3CC3)sc2c1` [Compound I-49, 2-[(1S,4S,5R)-5-{[1-cyclopropyl-4-(2,6-dichlorophenyl)-1H-pyrazol-5-yl]methoxy}-2-azabicyclo[2.2.1]heptan-2-yl]-4-(oxan-4-yl)-1,3-benzothiazole-6-carboxylic acid]: in experiment [1], the EC50 is < 63.1 nM and the Emax was found to be 105%. In addition, in experiment [2], the Emax was found to be 82% and the EC50 is 100 nM.

In the case of `O=C(O)c1ccc(N2C[C@@H]3C[C@H]2C[C@H]3OCc2c(C3CC3)nnn2-c2c(Cl)cccc2Cl)cc1` [Compound I-52, 4-[(1S,4S,5R)-5-{[4-cyclopropyl-1-(2,6-dichlorophenyl)-1H-1,2,3-triazol-5-yl]methoxy}-2-azabicyclo[2.2.1]heptan-2-yl]benzoic acid], in experiment [1], the EC50 was 3.98 nM and the Emax worked out at 106%. In addition, in experiment [2], the Emax was 140% and the EC50 is 6.31 nM.

For `O=C(O)c1ccc(N2C[C@@H]3C[C@H]2C[C@H]3OCc2c(C3CC3)nnn2-c2c(Cl)cccc2Cl)cc1F` [Compound I-53, 4-[(1S,4S,5R)-5-{[4-cyclopropyl-1-(2,6-dichlorophenyl)-1H-1,2,3-triazol-5-yl]methoxy}-2-azabicyclo[2.2.1]heptan-2-yl]-2-fluorobenzoic acid], in experiment [1], the EC50 is 3.98 nM and the Emax was determined as 92%. In experiment [2], the Emax stood at 170% and the EC50 was 6.31 nM.

In the case of `O=C(O)CCc1ccc(N2C[C@@H]3C[C@H]2C[C@H]3OCc2c(C3CC3)nnn2-c2c(Cl)cccc2Cl)c(F)c1` [Compound I-54, 3-{4-[(1S,4S,5R)-5-{[4-cyclopropyl-1-(2,6-dichlorophenyl)-1H-1,2,3-triazol-5-yl]methoxy}-2-azabicyclo[2.2.1]heptan-2-yl]-3-fluorophenyl}propanoic acid], in experiment [1], the EC50 is 12.6 nM and the Emax stood at 100%. Also, in experiment [2], the Emax was determined as 152% and the EC50 was 20 nM.

Regarding `O=C(O)CCc1ccc(N2C[C@@H]3C[C@H]2C[C@H]3OCc2c(C3CC3)nnn2-c2c(Cl)cccc2Cl)cc1F` [Compound I-55, 3-{4-[(1S,4S,5R)-5-{[4-cyclopropyl-1-(2,6-dichlorophenyl)-1H-1,2,3-triazol-5-yl]methoxy}-2-azabicyclo[2.2.1]heptan-2-yl]-2-fluorophenyl}propanoic acid], the EC50 in experiment [1] is 15.8 nM; in experiment [2], 63.1 nM. The results for the Emax in experiment [1] and in experiment [2] were 91% and 147%, respectively.

`O=C(NS(=O)(=O)C1CCOCC1)c1ccc(N2C[C@@H]3C[C@H]2C[C@H]3OCc2c(C3CC3)nnn2-c2c(Cl)cccc2Cl)cc1` [Compound I-56, 4-[(1S,4S,5R)-5-{[4-cyclopropyl-1-(2,6-dichlorophenyl)-1H-1,2,3-triazol-5-yl]methoxy}-2-azabicyclo[2.2.1]heptan-2-yl]-N-(oxane-4-sulfonyl)benzamide]: the values for the EC50 in experiment [1] and in experiment [2] were 10 nM and 2 nM, respectively. The values for the Emax in experiment [1] and in experiment [2] were 104% and 180%, respectively.

On to `O=C(O)c1cc(O[C@H]2CCOC2)c2nc(N3C[C@@H]4C[C@H]3C[C@H]4OCc3c(C4CC4)nnn3-c3c(Cl)cccc3Cl)sc2c1` [Compound I-61, 2-[(1S,4S,5R)-5-{[4-cyclopropyl-1-(2,6-dichlorophenyl)-1H-1,2,3-triazol-5-yl]methoxy}-2-azabicyclo[2.2.1]heptan-2-yl]-4-[(3S)-oxolan-3-yloxy]-1,3-benzothiazole-6-carboxylic acid], for which, in experiment [1], the EC50 was 25.1 nM and the Emax worked out at 107%. Also, in experiment [2], the Emax came out at 158% and the EC50 was 3.98 nM.

In the case of `O=C(O)c1cc(O[C@@H]2CCOC2)c2nc(N3C[C@@H]4C[C@H]3C[C@H]4OCc3c(C4CC4)nnn3-c3c(Cl)cccc3Cl)sc2c1` [Compound I-62, 2-[(1S,4S,5R)-5-{[4-cyclopropyl-1-(2,6-dichlorophenyl)-1H-1,2,3-triazol-5-yl]methoxy}-2-azabicyclo[2.2.1]heptan-2-yl]-4-[(3R)-oxolan-3-yloxy]-1,3-benzothiazole-6-carboxylic acid], in experiment [1], the EC50 was 25.1 nM and the Emax was found to be 106%. For the same molecule, in experiment [2], the Emax came to 158% and the EC50 is 3.98 nM.

Turning to `O=C(O)c1cc(OC(F)(F)F)c2nc(N3C[C@@H]4C[C@H]3C[C@H]4OCc3c(-c4c(Cl)cccc4Cl)nnn3C3CC3)sc2c1` [Compound I-63, 2-[(1S,4S,5R)-5-{[1-cyclopropyl-4-(2,6-dichlorophenyl)-1H-1,2,3-triazol-5-yl]methoxy}-2-azabicyclo[2.2.1]heptan-2-yl]-4-(trifluoromethoxy)-1,3-benzothiazole-6-carboxylic acid], the EC50 in experiment [1] and in experiment [2] was 12.6 nM throughout. The Emax in experiment [1] amounted to 103%; in experiment [2], 180%.

Turning to `O=C(O)c1cc(OC2CC2)c2nc(N3C[C@@H]4C[C@H]3C[C@H]4OCc3c(-c4c(Cl)cccc4Cl)nnn3C3CC3)sc2c1` [Compound I-64, 4-cyclopropoxy-2-((1S,4S,5R)-5-((1-cyclopropyl-4-(2,6-dichlorophenyl)-1H-1,2,3-triazol-5-yl)methoxy)-2-azabicyclo[2.2.1]heptan-2-yl)benzo[d]thiazole-6-carboxylic acid], in experiment [1], the EC50 was 10 nM and the Emax stood at 113%. For the same molecule, in experiment [2], the Emax stood at 172% and the EC50 is 5.01 nM.

In the case of `O=C(O)c1cc(C2CCOCC2)c2nc(N3C[C@@H]4C[C@H]3C[C@H]4OCc3c(-c4c(Cl)cccc4Cl)nnn3C3CC3)sc2c1` [Compound I-67, 2-((1S,4S,5R)-5-((1-cyclopropyl-4-(2,6-dichlorophenyl)-1H-1,2,3-triazol-5-yl)methoxy)-2-azabicyclo[2.2.1]heptan-2-yl)-4-(tetrahydro-2H-pyran-4-yl)benzo[d]thiazole-6-carboxylic acid], in experiment [1], the EC50 was 10 nM and the Emax is 111%. Besides, in experiment [2], the Emax turned out to be 148% and the EC50 is 20 nM.

With `O=C(O)c1cc(C2CCC2)c2nc(N3C[C@@H]4C[C@H]3C[C@H]4OCc3c(-c4c(Cl)cccc4Cl)nnn3C3CC3)sc2c1` [Compound I-68, 4-cyclobutyl-2-[(1S,4S,5R)-5-{[1-cyclopropyl-4-(2,6-dichlorophenyl)-1H-1,2,3-triazol-5-yl]methoxy}-2-azabicyclo[2.2.1]heptan-2-yl]-1,3-benzothiazole-6-carboxylic acid], the results for the EC50 in experiment [1] and in experiment [2] were 1.58 nM and 3.98 nM, respectively. Also, the Emax in experiment [1] was found to be 106%; in experiment [2], 178%.

As for `O=C(O)c1cc(C2CCCC2)c2nc(N3C[C@@H]4C[C@H]3C[C@H]4OCc3c(-c4c(Cl)cccc4Cl)nnn3C3CC3)sc2c1` [Compound I-69, 4-cyclopentyl-2-[(1S,4S,5R)-5-{[1-cyclopropyl-4-(2,6-dichlorophenyl)-1H-1,2,3-triazol-5-yl]methoxy}-2-azabicyclo[2.2.1]heptan-2-yl]-1,3-benzothiazole-6-carboxylic acid], in experiment [1], the EC50 was 2.51 nM and the Emax came out at 111%. In experiment [2], the Emax was 168% and the EC50 was 6.31 nM.

For `O=C(O)c1ccc(N2C[C@@H]3C[C@H]2C[C@H]3OCc2c(-c3c(Cl)cccc3Cl)nnn2C2CC2)cc1` [Compound I-70, 4-[(1S,4S,5R)-5-{[1-cyclopropyl-4-(2,6-dichlorophenyl)-1H-1,2,3-triazol-5-yl]methoxy}-2-azabicyclo[2.2.1]heptan-2-yl]benzoic acid], in experiment [1], the EC50 was 39.8 nM and the Emax amounted to 106%. Besides, in experiment [2], the Emax came to 155% and the EC50 is 63.1 nM.
